One experiment has as its target T1, Caspase-1 (Mus musculus) (UniProt P29452).
T1 sequence (whole entry): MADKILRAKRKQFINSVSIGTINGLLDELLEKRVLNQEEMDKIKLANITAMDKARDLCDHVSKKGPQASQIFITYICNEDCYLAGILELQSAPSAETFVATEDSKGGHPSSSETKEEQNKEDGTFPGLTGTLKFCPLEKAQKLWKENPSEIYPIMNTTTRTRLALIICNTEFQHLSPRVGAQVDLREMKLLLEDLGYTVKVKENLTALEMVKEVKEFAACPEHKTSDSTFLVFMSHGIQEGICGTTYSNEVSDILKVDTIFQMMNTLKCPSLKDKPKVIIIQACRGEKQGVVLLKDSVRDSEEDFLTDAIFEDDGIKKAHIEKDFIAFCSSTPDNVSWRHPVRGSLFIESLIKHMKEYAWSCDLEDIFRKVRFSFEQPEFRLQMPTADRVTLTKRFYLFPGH
Nature of the experiment: Binding affinity against mouse Caspase-1.

The subject of the next experiment is Jurkat. Nature of the experiment: Inhibitory concentration for cellular activity in jurkat assay. In kind it is functional, cell-based. As to conditions: Homo sapiens.
Experiment [1] has as its target T2, Caspase-6 (Homo sapiens) (UniProt P55212).
T2 sequence (whole entry): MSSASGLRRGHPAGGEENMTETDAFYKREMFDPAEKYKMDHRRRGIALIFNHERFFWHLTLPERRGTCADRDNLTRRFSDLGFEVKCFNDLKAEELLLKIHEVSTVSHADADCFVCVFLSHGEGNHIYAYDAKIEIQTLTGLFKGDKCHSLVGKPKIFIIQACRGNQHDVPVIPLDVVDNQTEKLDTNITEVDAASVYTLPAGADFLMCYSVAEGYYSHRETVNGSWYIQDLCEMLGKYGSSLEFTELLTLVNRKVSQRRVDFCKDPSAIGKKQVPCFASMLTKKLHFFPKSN
Nature of the experiment: Reversible inhibition against Caspase-6.

The next experiment addresses T3, Caspase-3 (Homo sapiens) (UniProt P42574).
T3 sequence (whole entry): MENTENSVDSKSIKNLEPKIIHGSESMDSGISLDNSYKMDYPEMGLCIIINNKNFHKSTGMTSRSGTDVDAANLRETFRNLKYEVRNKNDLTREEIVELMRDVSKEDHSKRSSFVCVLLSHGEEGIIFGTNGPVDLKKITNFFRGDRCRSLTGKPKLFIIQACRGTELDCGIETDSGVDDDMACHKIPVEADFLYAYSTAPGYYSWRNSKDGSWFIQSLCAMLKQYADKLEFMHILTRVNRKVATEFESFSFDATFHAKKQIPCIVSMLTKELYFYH
The experiment is described as follows: Binding affinity against Caspase-3.

The next experiment addresses Caspase-8 (Homo sapiens) (UniProt Q14790). Nature of the experiment: Binding affinity against Caspase-8.
Experiment [2] deals with T2, Caspase-6 (Homo sapiens). The experiment is described as follows: Binding affinity against Caspase-6.

The structures appear in SMILES notation. pIC50: −log10 of the molar value.

Sequence of Caspase-8 (Homo sapiens) (Q14790 217-374 limits assumed): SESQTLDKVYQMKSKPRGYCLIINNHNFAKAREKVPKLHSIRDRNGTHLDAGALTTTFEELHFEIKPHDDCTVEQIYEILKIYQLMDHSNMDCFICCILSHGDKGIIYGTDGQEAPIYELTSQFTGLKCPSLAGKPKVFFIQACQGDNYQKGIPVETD
Sequence of Caspase-8 (Homo sapiens) (Q14790 385-479 limits assumed): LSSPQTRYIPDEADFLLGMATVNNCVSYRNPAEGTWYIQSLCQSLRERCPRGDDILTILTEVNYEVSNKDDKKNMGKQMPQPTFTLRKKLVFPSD

The term pIC50 denotes −log10 of the IC50, conventionally taken in molar units. Regarding `CCOC(=O)c1c(C)noc1OCC(=O)[C@H](CC(=O)O)NC(=O)[C@@H](NC(=O)COc1cccc2ccccc12)C(C)C`, the k3/ki on Caspase-1 (Mus musculus) is 1440 1/m/s; on Caspase-6 (Homo sapiens) [1] it was 0 1/m/s; at Caspase-3 (Homo sapiens), 5670 1/m/s; at Caspase-8 (Homo sapiens), 1140 1/m/s. The compound further showed a pIC50 in the experiment on Jurkat below 3.70.

For `CC(C)[C@H](NC(=O)COc1cccc2ccccc12)C(=O)N[C@@H](CC(=O)O)C(=O)CSc1nc(-c2ccccc2)c(-c2ccccc2)[nH]1`, the k3/ki was 22 1/m/s at Caspase-6 (Homo sapiens) [2], 199 1/m/s at Caspase-1 (Mus musculus), 1390 1/m/s on Caspase-3 (Homo sapiens) and 0 1/m/s on Caspase-8 (Homo sapiens). The pIC50 in the experiment on Jurkat is below 3.70.

Regarding `CC(C)[C@H](NC(=O)COc1cccc2ccccc12)C(=O)N[C@@H](CC(=O)O)C(=O)CSc1nnc(-c2ccccc2)o1`, the k3/ki is 110 1/m/s on Caspase-6 (Homo sapiens) [2], 280 1/m/s at Caspase-1 (Mus musculus), 4800 1/m/s at Caspase-3 (Homo sapiens) and 276 1/m/s on Caspase-8 (Homo sapiens). Further, in the experiment with Jurkat, the pIC50 was 3.82.

For `Cc1nnc(SCC(=O)[C@H](CC(=O)O)NC(=O)[C@@H](NC(=O)COc2cccc3ccccc23)C(C)C)s1`, the k3/ki is 83 1/m/s at Caspase-6 (Homo sapiens) [2], 5480 1/m/s at Caspase-1 (Mus musculus), 5240 1/m/s at Caspase-3 (Homo sapiens) and 0 1/m/s on Caspase-8 (Homo sapiens). Further, the pIC50 with Jurkat is 3.72.

Turning to `CC(C)[C@H](NC(=O)COc1cccc2ccccc12)C(=O)N[C@@H](CC(=O)O)C(=O)CSc1nc2ccccc2s1`, the k3/ki at Caspase-6 (Homo sapiens) [2] is 0 1/m/s; at Caspase-1 (Mus musculus), 202 1/m/s; on Caspase-3 (Homo sapiens), 3570 1/m/s; at Caspase-8 (Homo sapiens) it was 0 1/m/s. The pIC50 with Jurkat was below 3.70.

As to `CC(C)[C@H](NC(=O)COc1cccc2ccccc12)C(=O)N[C@@H](CC(=O)O)C(=O)COc1ccccn1`, the k3/ki at Caspase-6 (Homo sapiens) [2] was 5 1/m/s; on Caspase-1 (Mus musculus) it was 138 1/m/s; on Caspase-3 (Homo sapiens) it was 733 1/m/s; on Caspase-8 (Homo sapiens) it was 8 1/m/s. For the same compound, in the experiment with Jurkat, the pIC50 is below 3.70.

For the compound `CC(C)[C@H](NC(=O)COc1cccc2ccccc12)C(=O)N[C@@H](CC(=O)O)C(=O)COc1nncc(Cl)c1Cl`, the k3/ki on Caspase-6 (Homo sapiens) [2] was 8 1/m/s; at Caspase-1 (Mus musculus), 152 1/m/s; on Caspase-3 (Homo sapiens), 1760 1/m/s; at Caspase-8 (Homo sapiens), 0 1/m/s. Also, in the experiment with Jurkat, the pIC50 was below 3.70.

As to `CC(C)[C@H](NC(=O)COc1cccc2ccccc12)C(=O)N[C@@H](CC(=O)O)C(=O)CSc1nncn1C`, the k3/ki is 221 1/m/s on Caspase-6 (Homo sapiens) [2], 180 1/m/s at Caspase-1 (Mus musculus), 2260 1/m/s on Caspase-3 (Homo sapiens) and 293 1/m/s on Caspase-8 (Homo sapiens). Besides, the pIC50 in the experiment on Jurkat was below 3.70.

With `CC(C)[C@H](NC(=O)COc1cccc2ccccc12)C(=O)N[C@@H](CC(=O)O)C(=O)COc1ccc2ccccc2n1`, the k3/ki was 0 1/m/s on Caspase-6 (Homo sapiens) [2], 67 1/m/s at Caspase-1 (Mus musculus), 979 1/m/s at Caspase-3 (Homo sapiens) and 9 1/m/s at Caspase-8 (Homo sapiens). This compound also showed a pIC50 with Jurkat below 3.70.

Take `CC(C)[C@H](NC(=O)COc1cccc2ccccc12)C(=O)N[C@@H](CC(=O)O)C(=O)COc1cc2ccccc2cn1`: the k3/ki on Caspase-6 (Homo sapiens) [2] was 96 1/m/s; on Caspase-1 (Mus musculus) it was 693 1/m/s; on Caspase-3 (Homo sapiens), 3350 1/m/s; on Caspase-8 (Homo sapiens), 8 1/m/s. Besides, the pIC50 in the experiment on Jurkat is below 3.70.

For the compound `CC(C)[C@H](NC(=O)COc1cccc2ccccc12)C(=O)N[C@@H](CC(=O)O)C(=O)CSC1=NCCS1`, the k3/ki on Caspase-6 (Homo sapiens) [2] is 228 1/m/s; at Caspase-1 (Mus musculus) it was 186 1/m/s; on Caspase-3 (Homo sapiens) it was 2300 1/m/s; on Caspase-8 (Homo sapiens), 231 1/m/s. The compound further showed a pIC50 in the experiment on Jurkat below 3.70.

On to `Cc1cc(C)nc(SCC(=O)[C@H](CC(=O)O)NC(=O)[C@@H](NC(=O)COc2cccc3ccccc23)C(C)C)n1`, for which the k3/ki on Caspase-6 (Homo sapiens) [2] is 656 1/m/s; on Caspase-1 (Mus musculus) it was 950 1/m/s; on Caspase-3 (Homo sapiens), 7130 1/m/s; on Caspase-8 (Homo sapiens), 120 1/m/s. The compound further showed a pIC50 with Jurkat below 3.70.

On to `CC(C)[C@H](NC(=O)COc1cccc2ccccc12)C(=O)N[C@@H](CC(=O)O)C(=O)COc1nccc(C(F)(F)F)n1`, for which the k3/ki on Caspase-6 (Homo sapiens) [2], on Caspase-1 (Mus musculus), at Caspase-3 (Homo sapiens) and on Caspase-8 (Homo sapiens) was 0 1/m/s in each case. The pIC50 in the experiment on Jurkat was below 3.70.

For the compound `CC(C)[C@H](NC(=O)COc1cccc2ccccc12)C(=O)N[C@@H](CC(=O)O)C(=O)COc1ncnc2ccccc12`, the k3/ki is 0 1/m/s at Caspase-6 (Homo sapiens) [2], 83 1/m/s at Caspase-1 (Mus musculus), 343 1/m/s at Caspase-3 (Homo sapiens) and 4 1/m/s on Caspase-8 (Homo sapiens). The compound also gave a pIC50 in the experiment on Jurkat below 3.70.

These data come from ChEMBL document CHEMBL1144434, “Structure-activity relationships within a series of caspase inhibitors. Part 2: Heterocyclic warheads” (Bioorg Med Chem Lett, 2005).
